Test results reported in ChEMBL document CHEMBL4706748, “Targeting KRAS Mutant Cancers via Combination Treatment: Discovery of a Pyridopyridazinone pan-RAF Kinase Inhibitor” (ACS Med Chem Lett, 2021).
Calls of active or inactive are those of the source. No cut-off for these calls is given here.

How the values were obtained:
[1] = target: Serine/threonine-protein kinase B-raf (Homo sapiens, UniProt P15056); experiment: Inhibition of BRAF (unknown origin) (416 to 766) assessed as using inactive phosphorylated MAP2K1 substrate preincubated for 30 mins measured after 90 mins by DELFIA assay
A549 [2] = experiment: Antiproliferative activity against human A549 cells harboring KRAS mutant assessed as reduction in cell viability; type: functional, cell-based
A549 [3] = experiment: Synergistic antiproliferative activity against human A549 cells harboring KRAS mutant assessed as reduction in cell viability in presence of 100 nM cobi-metinib; type: functional, cell-based
[4] = target: RAF proto-oncogene serine/threonine-protein kinase (Homo sapiens, UniProt P04049, Y340D/Y341D); experiment: Inhibition of CRAF Y340D/Y341D mutant (unknown origin) assessed as using inactive phosphorylated MAP2K1 substrate preincubated for 30 mins measured after 90 mins by DELFIA assay
A-375 = experiment: Antiproliferative activity against human A375 cells harboring BRAF mutant assessed as reduction in cell viability; type: functional, cell-based
[5] = Apparent permeability across apical to basolateral side in MDCK cells; type: ADME, cell-based, Canis lupus familiaris; conditions: dog
[6] = Efflux ratio of permeability across basolateral to apical side over apical to basolateral side in MDCK cells; type: ADME, cell-based, Canis lupus familiaris; conditions: dog
[7] = Clearance in mouse at 1 mg/kg, iv; type: ADME, organism-based; conditions: in vivo
[8] = Volume of distribution in mouse at 1 mg/kg, iv; type: ADME, organism-based; conditions: in vivo
[9] = Oral bioavailability in mouse at 5 mg/kg; type: ADME, organism-based; conditions: in vivo
[10] = Half life in mouse; type: ADME, organism-based; conditions: in vivo
Mus musculus [11] = experiment: In vivo inhibition of RAF in human HCT116 cells xenografted in NCR mouse assessed as inhibition of DUSP6 gene expression at 5 mg/kg, po qd for 4 days measured upto 24 hrs of last dose; type: functional, organism-based; conditions: time 4.0 day
Mus musculus [12] = experiment: In vivo inhibition of RAF in human HCT116 cells xenografted in NCR mouse assessed as inhibition of SPRY4 gene expression at 5 mg/kg, po qd for 4 days measured upto 24 hrs of last dose; type: functional, organism-based; conditions: time 4.0 day
Mus musculus [13] = experiment: In vivo inhibition of RAF in human HCT116 cells xenografted in NCR mouse assessed as inhibition of DUSP6 gene expression at 15 mg/kg, po qd for 4 days measured upto 24 hrs of last dose; type: functional, organism-based; conditions: time 4.0 day
Mus musculus [14] = experiment: In vivo inhibition of RAF in human HCT116 cells xenografted in NCR mouse assessed as inhibition of SPRY4 gene expression at 15 mg/kg, po qd for 4 days measured upto 24 hrs of last dose; type: functional, organism-based; conditions: time 4.0 day
Mus musculus [15] = experiment: In vivo inhibition of RAF in human HCT116 cells xenografted in NCR mouse assessed as inhibition of DUSP6 gene expression in presence of Cobi-metinib at 15 mg/kg, po qd for 4 days measured upto 8 hrs of last dose; type: functional, organism-based; conditions: time 4.0 day
Mus musculus [16] = experiment: In vivo inhibition of RAF in human HCT116 cells xenografted in NCR mouse assessed as inhibition of SPRY4 gene expression in presence of Cobi-metinib at 15 mg/kg, po qd for 4 days measured upto 8 hrs of last dose; type: functional, organism-based; conditions: time 4.0 day
Mus musculus [17] = experiment: In vivo inhibition of RAF in human HCT116 cells xenografted in NCR mouse assessed as inhibition of pRSK gene expression in presence of Cobi-metinib at 15 mg/kg, po qd for 4 days measured upto 8 hrs of last dose; type: functional, organism-based; conditions: time 4.0 day
Mus musculus [18] = experiment: In vivo inhibition of RAF in human HCT116 cells xenografted in NCR mouse assessed as inhibition of pRSK gene expression in presence of Cobi-metinib at 15 mg/kg, po qd for 4 days measured at 24 hrs of last dose; type: functional, organism-based; conditions: time 4.0 day
Mus musculus [19] = experiment: In vivo inhibition of RAF in human HCT116 cells xenografted in NCR mouse assessed as inhibition of DUSP6 gene expression in presence of Cobi-metinib at 15 mg/kg, po qd for 4 days measured at 24 hrs of last dose; type: functional, organism-based; conditions: time 4.0 day
Mus musculus [20] = experiment: In vivo inhibition of RAF in human HCT116 cells xenografted in NCR mouse assessed as inhibition of SPRY4 gene expression in presence of Cobi-metinib at 15 mg/kg, po qd for 4 days measured at 24 hrs of last dose; type: functional, organism-based; conditions: time 4.0 day

RAF proto-oncogene serine/threonine-protein kinase, sequence (P04049 whole entry Y340D/Y341D): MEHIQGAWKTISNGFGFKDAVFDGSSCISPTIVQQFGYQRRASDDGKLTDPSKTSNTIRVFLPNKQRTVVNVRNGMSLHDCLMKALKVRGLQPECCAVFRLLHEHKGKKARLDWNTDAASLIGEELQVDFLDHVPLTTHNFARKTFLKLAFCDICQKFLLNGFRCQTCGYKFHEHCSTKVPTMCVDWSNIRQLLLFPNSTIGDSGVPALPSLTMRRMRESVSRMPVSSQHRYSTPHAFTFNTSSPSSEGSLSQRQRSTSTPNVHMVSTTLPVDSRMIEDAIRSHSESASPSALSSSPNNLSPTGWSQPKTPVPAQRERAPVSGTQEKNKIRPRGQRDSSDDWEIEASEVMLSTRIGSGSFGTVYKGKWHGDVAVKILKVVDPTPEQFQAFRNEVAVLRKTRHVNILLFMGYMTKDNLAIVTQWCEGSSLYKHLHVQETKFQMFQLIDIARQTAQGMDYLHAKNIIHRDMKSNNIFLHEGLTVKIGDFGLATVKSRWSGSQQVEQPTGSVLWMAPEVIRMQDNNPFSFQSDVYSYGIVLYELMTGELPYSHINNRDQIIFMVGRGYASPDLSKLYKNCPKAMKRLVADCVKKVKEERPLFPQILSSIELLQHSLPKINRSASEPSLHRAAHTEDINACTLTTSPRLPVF
Serine/threonine-protein kinase B-raf, sequence (P15056 whole entry): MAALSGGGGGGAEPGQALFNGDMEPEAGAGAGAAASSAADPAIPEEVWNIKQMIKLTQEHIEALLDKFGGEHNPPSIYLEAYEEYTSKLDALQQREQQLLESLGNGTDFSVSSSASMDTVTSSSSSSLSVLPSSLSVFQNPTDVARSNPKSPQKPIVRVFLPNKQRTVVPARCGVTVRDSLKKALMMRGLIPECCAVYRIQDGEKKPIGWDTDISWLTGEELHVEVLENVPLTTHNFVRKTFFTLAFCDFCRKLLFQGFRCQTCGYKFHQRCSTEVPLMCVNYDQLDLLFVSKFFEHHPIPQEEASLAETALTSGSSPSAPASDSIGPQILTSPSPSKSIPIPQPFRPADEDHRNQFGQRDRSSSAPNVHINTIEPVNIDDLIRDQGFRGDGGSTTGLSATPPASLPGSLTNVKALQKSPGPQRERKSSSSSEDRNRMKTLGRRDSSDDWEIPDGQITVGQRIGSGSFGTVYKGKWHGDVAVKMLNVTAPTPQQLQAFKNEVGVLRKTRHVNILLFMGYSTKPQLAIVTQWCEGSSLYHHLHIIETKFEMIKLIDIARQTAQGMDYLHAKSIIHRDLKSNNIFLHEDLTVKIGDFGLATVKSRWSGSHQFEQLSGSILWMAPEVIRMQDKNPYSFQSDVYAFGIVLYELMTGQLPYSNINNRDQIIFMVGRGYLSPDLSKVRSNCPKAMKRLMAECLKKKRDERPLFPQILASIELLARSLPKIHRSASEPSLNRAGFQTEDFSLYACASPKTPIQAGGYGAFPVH

Row | Compound | Ki [1] | IC50 (A549 [2]) | IC50 (A549 [3]) | Ki [4] | IC50 (A-375) | Papp A→B [5] | efflux ratio [6] | also measured
1 | Cc1cc(F)c(NC(=O)NCCC(C)(C)C)cc1Nc1ccc2ncn(C)c(=O)c2c1F | < 0.08 nM | 2900 nM | 2900 nM |  |  |  |  | 
2 | Cc1cc(F)c(NC(=O)NCCC(C)(C)C)cc1-c1ccc2c(=O)n(C)ncc2c1 | < 0.08 nM | 1590 nM | 187 nM | < 0.05 nM | 210 nM | 8.7 ×10⁻⁶ cm/s | 0.5 | clearance [7]: 22 mL/min/kg; Vd [8]: 2.1 L/kg; bioavailability [9]: 2%; half-life [10]: 1.3 h
3 | Cc1cc(F)c(C(=O)NCCCC(C)(C)C)cc1-c1ccc2c(=O)n(C)ncc2c1 | 0.12 nM | 7730 nM | 1120 nM | 0.06 nM |  | 8.1 ×10⁻⁶ cm/s | 0.74 | 
4 | CNc1ncc2cc(-c3cc(NC(=O)NCCC(C)(C)C)c(F)cc3C)c(=O)n(C)c2n1 | 0.102 nM | 337 nM | 39.2 nM | 0.081 nM | 32.2 nM |  |  | 
5 | O=C(c1ccc(F)c(F)c1Nc1ccc(I)cc1F)N1CC(O)([C@@H]2CCCCN2)C1 |  |  |  |  |  |  |  | inhibition (Mus musculus [11]): Active; inhibition (Mus musculus [12]): Active
6 | Cc1cc(F)c(NC(=O)NCCC(C)(C)C)cc1-c1ccc2cc(N)ncc2c1 | < 0.08 nM | 668 nM | 148 nM | < 0.05 nM | 224 nM |  |  | 
7 | Cc1cc(F)c(NC(=O)c2cccc(C(C)(C)C#N)c2)cc1-c1ccc2c(=O)n(C)ncc2c1 | < 0.08 nM | 1360 nM | 138 nM | < 0.05 nM |  | 7.8 ×10⁻⁶ cm/s | 1 | 
8 | CNc1ncc2cc(-c3cc(NC(=O)NCCC(C)(C)C)c(F)cc3C)c(C)nc2n1 [LY-3009120] |  | 545 nM | 45.6 nM |  | 28.3 nM |  |  | 
9 | Cc1cc(F)c(NC(=O)c2cccc(C(C)(C)C#N)c2)cc1-c1cnc2c(=O)n(C)ncc2c1 | 0.19 nM | 5470 nM | 369 nM | 0.062 nM |  | 14 ×10⁻⁶ cm/s | 0.86 | clearance [7]: 17 mL/min/kg; Vd [8]: 1.7 L/kg; bioavailability [9]: 37%; half-life [10]: 1.9 h; inhibition (Mus musculus [13]): Active; inhibition (Mus musculus [14]): Active; inhibition (Mus musculus [15]): Active; inhibition (Mus musculus [16]): Active; inhibition (Mus musculus [17]): Active; inhibition (Mus musculus [18]): inactive; inhibition (Mus musculus [19]): inactive; inhibition (Mus musculus [20]): inactive
